Test results taken from the supplement of paper PMC10307832.

Key:
Experiment in all cases: relative viability (nuclei count vs DMSO), 5 days (fraction); higher = more cells survive
[1] = compound: C1=CC2=NC=CN=C2C=C1/C=C/3\C(=O)NC(=O)S3 + CC1(C)CCC(c2ccc(Cl)cc2)=C(CN2CCN(c3ccc(C(=O)NS(=O)(=O)c4ccc(N[C@H](CCN5CCOCC5)CSc5ccccc5)c(S(=O)(=O)C(F)(F)F)c4)cc3)CC2)C1 [Navitoclax] (partner 0.5 µM)
How it was run: (§1)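 After 5 days of treatment, lung cancer cells in 1536-well plates were fixed and stained in a single step (final 0.05% Triton X-100, 1% formaldehyde, 1 ug/ml Hoechst) and their nuclei counted on 4× images. Treatment had been applied by pin tool the day after seeding as one drug alone or as a fixed anchor-drug dose with five library-drug doses (not always all listed) in √10 steps. Relative viability is the nuclei count of treated wells divided by that of vehicle wells, and values are medians of duplicate plates.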

[2] = compound: C1=CC2=NC=CN=C2C=C1/C=C/3\C(=O)NC(=O)S3 + N=C(N)NC(=N)NCCc1ccccc1 [Phenformin] (partner 250 µM)
How it was run: as §1

BGJ398 + Luminespib = compound: CCN1CCN(c2ccc(Nc3cc(N(C)C(=O)Nc4c(Cl)c(OC)cc(OC)c4Cl)ncn3)cc2)CC1 [BGJ398] + CCNC(=O)c1noc(-c2cc(C(C)C)c(O)cc2O)c1-c1ccc(CN2CCOCC2)cc1 [Luminespib] (partner 0.01 µM)
How it was run: as §1

BGJ398 + Alpelisib = compound: CCN1CCN(c2ccc(Nc3cc(N(C)C(=O)Nc4c(Cl)c(OC)cc(OC)c4Cl)ncn3)cc2)CC1 [BGJ398] + Cc1nc(NC(=O)N2CCC[C@H]2C(N)=O)sc1-c1ccnc(C(C)(C)C(F)(F)F)c1 [Alpelisib] (partner 2 µM)
How it was run: as §1

| Cell Line | relative viability ([1]; first compound 0.02 µM) | relative viability ([1]; first compound 0.06325 µM) | relative viability ([1]; first compound 0.2 µM) | relative viability ([1]; first compound 0.6325 µM) | relative viability ([1]; first compound 2 µM) | relative viability ([2]; first compound 0.02 µM) | relative viability ([2]; first compound 0.06325 µM) | relative viability ([2]; first compound 0.2 µM) | relative viability ([2]; first compound 0.6325 µM) | relative viability ([2]; first compound 2 µM) | relative viability (BGJ398 + Luminespib; first compound 0.01 µM) | relative viability (BGJ398 + Luminespib; first compound 0.03162 µM) | relative viability (BGJ398 + Luminespib; first compound 0.1 µM) | relative viability (BGJ398 + Luminespib; first compound 0.3162 µM) | relative viability (BGJ398 + Luminespib; first compound 1 µM) | relative viability (BGJ398 + Alpelisib; first compound 0.01 µM) | relative viability (BGJ398 + Alpelisib; first compound 0.03162 µM) | relative viability (BGJ398 + Alpelisib; first compound 0.1 µM) | relative viability (BGJ398 + Alpelisib; first compound 0.3162 µM) | relative viability (BGJ398 + Alpelisib; first compound 1 µM) |
| --- | --- | --- | --- | --- | --- | --- | --- | --- | --- | --- | --- | --- | --- | --- | --- | --- | --- | --- | --- | --- |
| LU99A | 0.77 | 0.993 | 0.746 | 0.876 | 0.64 | 0.799 | 0.814 | 0.862 | 0.926 | 0.625 | 0.205 | 0.248 | 0.225 | 0.243 | 0.254 | 0.532 | 0.49 | 0.534 | 0.487 | 0.411 |
| LXF-289 | 0.92 | 0.918 | 0.898 | 0.917 | 0.932 | 0.491 | 0.501 | 0.535 | 0.526 | 0.478 | 0.668 | 0.643 | 0.578 | 0.634 | 0.657 | 0.983 | 1.03 | 1.02 | 0.957 | 0.947 |
| NCI-H23 | 0.714 | 1.18 | 0.828 | 0.868 | 0.635 | 0.79 | 0.716 | 0.825 | 0.781 | 0.729 | 0.228 | 0.213 | 0.203 | 0.22 | 0.189 | 0.746 | 0.652 | 0.666 | 0.625 | 0.574 |
| NCI-H322M | 1.05 | 1.12 | 1.35 | 1.11 | 1.16 | 0.744 | 0.813 | 0.796 | 0.776 | 0.669 | 0.887 | 0.744 | 0.848 | 0.788 | 0.85 | 0.772 | 0.741 | 0.851 | 0.761 | 0.813 |
| NCI-H441 | 0.523 | 0.562 |  | 0.771 | 0.553 | 0.856 | 1.06 | 0.84 | 0.755 | 0.327 | 0.453 | 0.346 | 0.318 | 0.383 | 0.371 | 0.775 | 0.707 | 0.644 | 0.73 | 0.593 |
| NCI-H460 | 1.03 | 1.24 | 1.19 | 1.02 | 1.11 | 0.477 | 0.619 | 0.536 | 0.516 | 0.468 | 0.0344 | 0.0414 | 0.0281 | 0.0308 | 0.0303 | 0.47 | 0.594 | 0.574 | 0.566 | 0.422 |
| NCI-H520 | 1.15 | 1.49 | 1.08 | 1.04 | 1.01 | 0.635 | 0.728 | 0.601 | 0.464 | 0.644 | 0.205 | 0.235 | 0.234 | 0.205 | 0.203 | 0.888 | 0.886 | 0.506 | 0.414 | 0.243 |
| NCI-H596 | 0.902 | 0.96 | 0.977 | 0.883 | 0.951 | 0.744 | 0.66 | 0.742 | 0.675 | 0.714 | 1.07 | 1.01 | 0.95 | 0.795 | 0.768 | 0.608 | 0.442 | 0.506 | 0.441 | 0.561 |
| NCI-H647 | 0.945 | 1.36 | 1.08 | 1.14 | 1.25 | 0.587 | 0.56 | 0.591 | 0.384 | 0.437 | 0.138 | 0.107 | 0.157 | 0.184 | 0.176 | 1.05 | 1.19 | 1.06 | 1.26 | 1.15 |
| NCI-H727 | 0.499 | 0.642 | 0.541 | 0.395 | 0.228 | 0.552 | 0.504 | 0.686 | 0.454 | 0.283 | 0.365 | 0.467 | 0.367 | 0.345 | 0.314 | 0.625 | 0.665 | 0.524 | 0.578 | 0.5 |
| NCI-H838 | 1.1 | 1.32 | 1.13 | 1.02 | 1.11 | 0.664 | 0.737 | 0.596 | 0.461 | 0.36 | 0.299 | 0.302 | 0.272 | 0.253 | 0.234 | 0.84 | 0.955 | 0.968 | 0.895 | 0.732 |
| NCI-H1355 | 0.87 | 1.01 | 1.05 | 1.03 | 0.951 | 0.435 | 0.374 | 0.489 | 0.431 | 0.392 | 0.683 | 0.705 | 0.793 | 0.735 | 0.696 | 0.71 | 0.828 | 0.9 | 0.837 | 0.823 |
| NCI-H1395 | 1.13 | 1.42 | 1.21 | 1.17 | 1.02 | 0.449 | 0.449 | 0.47 | 0.416 | 0.483 | 0.63 | 0.661 | 0.665 | 0.557 | 0.415 | 0.982 | 1.02 | 0.994 | 0.719 | 0.604 |
| NCI-H1437 | 1.03 | 1.1 | 1.12 | 1.07 | 0.93 | 0.258 | 0.286 | 0.369 | 0.274 | 0.233 | 1.18 | 1.19 | 1.05 | 1.12 | 1.11 | 0.96 | 0.989 | 0.955 | 0.991 | 0.972 |
| NCI-H1651 | 0.989 | 1.03 | 0.915 | 0.981 | 1.08 | 0.314 | 0.321 | 0.325 | 0.298 | 0.285 | 0.989 | 0.811 | 0.9 | 0.949 | 0.773 | 1.04 | 0.952 | 0.961 | 0.918 | 0.939 |
| NCI-H1666 | 0.9 | 0.954 | 0.913 | 0.989 | 0.919 | 0.36 | 0.481 | 0.578 | 0.541 | 0.548 | 1 | 0.998 | 0.99 | 1.04 | 0.988 | 1.01 | 1.08 | 1.01 | 0.922 | 0.909 |
